Eleven compounds from patent US20260250301A1, “KRAS G12D INHIBITORS AND USES THEREOF” (SUZHOU ZANRONG PHARMA LIMITED, priority 2023, published 2026) can be followed below.

A word on the IC50: it is the concentration that inhibits the measured activity by half. Read a low IC50 as inhibition by little substance. What is called bioavailability is the share of a dose that reaches the circulation, judged against a reference dose that is usually intravenous. A lower bioavailability goes with poor availability.

The test system of series [1] is PANC-1 pERK. The series can be described thus: Phospho-ERK 1/2 assay. As to conditions: PANC-1 cells, compound incubation 3 hours, pERK normalised with GAPDH antibody staining. In kind it is cell-based. The protocol:
Allow PNAC-1 cell growth in a T75 flask in DMEM and 10% 1 fetal calf serum (FCS; Gibco®), using standard tissue culture procedures until ~80% confluency is achieved. Day 1, seed 6000 cells/well in 384 well plate and incubate at 37° C., 5% CO2. Add diluted compound by Echo 550, final DMSO is 0.5%, incubate cells at 37° C., 5% CO2 for 3 hours. Then, remove medium and fix cells with 3.7% formaldehyde in PBS (PFA) by Apricot. Wash with PBS once. Permeabilize cells with cold 100% methanol and repeat wash once with PBS once. Add Li-Cor blocking buffer to each well and incubate 1.5 hours at RT. Remove blocking buffer and add primary antibody mixture (rabbit anti pERK, mouse anti GAPDH). Incubate at 4° C. overnight. Day 2, wash with PBST (Tween-20 in PBS) with total 3 times and then add secondary antibody mixture (goat anti rabbit 800CW (1:800 dilution in the combined solution) and goat anti mouse 680RD (1:800 dilution in the combined solution)), incubate for 60 minutes at RT away from light. Repeat washing with PBST 3 times. After final wash, centrifuge plate up-side-down at 1000 rpm to remove wash solution completely from wells. Before plate scanning, clean the bottom plate surface and the Odyssey© Imager scanning bed (if applicable) with moist, lint-free tissue to avoid any obstructions during scanning. Scan plate with detection in both 700 and 800 nm channels.

The nature of series [2]: In vivo oral bioavailability assay (mouse PK). As to conditions: Balb/c mice female, IV bolus 1 mg/kg. The procedure:
In Vivo Oral Bioavailability Assay (Mouse PK):
Single dose following IV bolus (1 mg/kg, 0.2 mg/mL in 1% DMSO, 99% SBE-β-CD (10% w/v) in water) and oral gavage (10 mg/kg~60 mg/kg) administration of test compound in Balb/c Mice female. The blood samples were collected at 2 min, 5 min, 10 min, 30 min, 1 hr, 2 hr, 4 hr, 8 hr and 24 hr (additional 32 hr and 48 hr for MRTX1133) after IV bolus, at 15 min, 30 min, 1 hr, 1.5 hr, 2 hr, 3 hr, 4 hr, 8 hr and 24 hr (additional 32 hr and 48 hr for MRTX1133) after PO administration. The plasma concentrations of compounds were determined with UPLC-MS/MS.

The target of series [3] is T1, P-glycoprotein (Pgp, MDR1) (Homo sapiens, UniProt P08183).
T1 construct: expressed in transfected cells; host or cells: MDCK-MDR1 cells
T1 sequence (P08183 whole entry): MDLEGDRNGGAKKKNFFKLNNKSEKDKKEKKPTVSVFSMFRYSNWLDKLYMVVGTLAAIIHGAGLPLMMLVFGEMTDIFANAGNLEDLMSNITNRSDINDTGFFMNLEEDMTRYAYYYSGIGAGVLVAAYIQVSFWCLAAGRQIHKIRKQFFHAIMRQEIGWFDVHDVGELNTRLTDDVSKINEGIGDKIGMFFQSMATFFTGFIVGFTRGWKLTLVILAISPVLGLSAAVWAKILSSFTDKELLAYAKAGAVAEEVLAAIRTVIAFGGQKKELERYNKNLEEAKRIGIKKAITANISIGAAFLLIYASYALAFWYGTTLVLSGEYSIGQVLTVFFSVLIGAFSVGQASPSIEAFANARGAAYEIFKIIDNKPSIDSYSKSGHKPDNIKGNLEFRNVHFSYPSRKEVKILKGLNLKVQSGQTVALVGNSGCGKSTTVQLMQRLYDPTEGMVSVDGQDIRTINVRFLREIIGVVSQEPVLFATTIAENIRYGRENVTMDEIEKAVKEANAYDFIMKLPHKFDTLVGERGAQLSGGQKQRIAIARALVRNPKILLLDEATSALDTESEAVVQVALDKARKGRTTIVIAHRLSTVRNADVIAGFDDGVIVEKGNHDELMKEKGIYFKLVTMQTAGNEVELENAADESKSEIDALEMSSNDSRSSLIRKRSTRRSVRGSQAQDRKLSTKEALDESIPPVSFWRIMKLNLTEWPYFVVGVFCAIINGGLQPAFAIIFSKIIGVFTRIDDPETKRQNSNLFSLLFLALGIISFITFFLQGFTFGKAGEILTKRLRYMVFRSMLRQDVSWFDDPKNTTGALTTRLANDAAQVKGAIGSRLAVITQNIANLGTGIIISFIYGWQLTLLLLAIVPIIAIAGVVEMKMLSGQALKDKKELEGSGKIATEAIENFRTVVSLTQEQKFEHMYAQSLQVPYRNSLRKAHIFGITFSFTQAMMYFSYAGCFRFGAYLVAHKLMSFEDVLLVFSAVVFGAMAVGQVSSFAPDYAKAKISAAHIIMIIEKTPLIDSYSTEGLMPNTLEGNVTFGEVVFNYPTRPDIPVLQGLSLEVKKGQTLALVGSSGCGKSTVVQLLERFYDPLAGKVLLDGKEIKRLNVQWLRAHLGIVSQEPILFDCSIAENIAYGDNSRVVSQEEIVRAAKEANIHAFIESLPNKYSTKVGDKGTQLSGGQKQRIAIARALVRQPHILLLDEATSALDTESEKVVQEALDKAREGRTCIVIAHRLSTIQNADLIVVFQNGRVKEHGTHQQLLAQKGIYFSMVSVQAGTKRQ
Briefly: MDCK-MDR1 Pgp assessment. The series is classed as in vitro ADME. As to conditions: dog, MDCK-MDR1 cells, read-out: Pgp Efflux Ratio (Pexact). The protocol:
Efflux transport mediated by P-glycoprotein (Pgp) was assessed by MDCK-MDR1 cells. The final concentrations of test compounds and control compound were at 1 μM. The multi-well insert plate was incubated at 37 ^9C for 2 hours. In order to reliably measure passive permeability coefficients, Pexact was reported, which automatically corrects for loss of compound.

Take `C#Cc1c(F)ccc2cccc(-c3nc4c5c(nc(=O)n(C[C@@]67CCCN6CC(=C)C7)c5c3F)N3C[C@H]5CC[C@H](N5)[C@H]3[C@H](C)O4)c12` (single isomer, unassigned) [Example 200a]: inhibition in series [1] (Homo sapiens, PANC-1, 3 h) was half-maximal at 12 nM (IC50). For the same compound, in series [2] (oral dose 10 mpk), the “Fa*Fg (%)” value came to 24%. This compound also displayed a bioavailability in series [2] (mouse, plasma, oral dose 10 mpk) of 15.8%.

In turn, `C#Cc1c(F)ccc2cccc(-c3nc4c5c(nc(=O)n(CC(C)(CO)N(C)C)c5c3F)N3C[C@H]5CC[C@H](N5)[C@H]3[C@H](C)O4)c12` (single isomer, unassigned) [Example 365a] yielded an IC50 in series [1] of 6 nM. The efflux ratio at 2 h, 1 μM in series [3] was 8.4.

For `CCc1c(F)ccc2cc(O)cc(-c3nc4c5c(nc(=O)n(CC(C)(CO)N(C)C)c5c3F)N3C[C@H]5CC[C@H](N5)[C@H]3[C@H](C)O4)c12` (single isomer, unassigned) [Example 373a], half-maximal inhibition in series [1] (IC50) was put at 6.4 nM. The efflux ratio at 2 h, 1 μM in series [3] is 12.5.

Take `CCc1c(F)ccc2cc(O)cc(-c3nc4c5c(nc(=O)n(C[C@@]67CCCN6C[C@H](F)C7)c5c3F)N3C[C@@]5(C)CC[C@H](N5)[C@H]3[C@H](C)O4)c12` [Example 361, (5S,5aS,6S,9R)-2-(8-ethyl-7-fluoro-3-hydroxynaphthalen-1-yl)-1-fluoro-13-(((2R,7aS)-2-fluorotetrahydro-1H-pyrrolizin-7a(5H)-yl)methyl)-5,9-dimethyl-5a,6,7,8,9,10-hexahydro-5H-4-oxa-3,10a,11,13,14-pentaaza-6,9-methanonaphtho[1,8-ab]heptalen-12(13H)-one]: inhibition in series [1] (Homo sapiens, PANC-1, 3 h) was half-maximal at 43 nM (IC50).

In series [1] (Homo sapiens, PANC-1, 3 h), `C=C1CN2CCC[C@@]2(Cn2c(=O)nc3c4c(nc(-c5cc(O)cc6ccc(F)c(CC)c56)c(F)c42)O[C@@H](C)[C@@H]2[C@@H]4CC[C@](C)(CN32)N4)C1` [Example 362, (5S,5aS,6S,9R)-2-(8-ethyl-7-fluoro-3-hydroxynaphthalen-1-yl)-1-fluoro-5,9-dimethyl-13-(((S)-2-methylenetetrahydro-1H-pyrrolizin-7a(5H)-yl)methyl)-5a,6,7,8,9,10-hexahydro-5H-4-oxa-3,10a,11,13,14-pentaaza-6,9-methanonaphtho[1,8-ab]heptalen-12(13H)-one] registered an IC50 of 221 nM.

In series [1] (Homo sapiens, PANC-1, 3 h), `C=C1CN2CCC[C@@]2(Cn2c(=O)nc3c4c(nc(-c5cc(O)cc6ccc(F)c(Cl)c56)c(F)c42)O[C@@H](C)[C@@H]2[C@@H]4CC[C@H](CN32)N4)C1` [Example 363, (5S,5aS,6S,9R)-2-(8-chloro-7-fluoro-3-hydroxynaphthalen-1-yl)-1-fluoro-5-methyl-13-(((S)-2-methylenetetrahydro-1H-pyrrolizin-7a(5H)-yl)methyl)-5a,6,7,8,9,10-hexahydro-5H-4-oxa-3,10a,11,13,14-pentaaza-6,9-methanonaphtho[1,8-ab]heptalen-12(13H)-one] yielded an IC50 of 88 nM.

As for `C#Cc1c(F)ccc2cccc(-c3nc4c5c(nc(=O)n(C[C@H]6CCN6C)c5c3F)N3C[C@H]5CC[C@H](N5)[C@H]3[C@H](C)O4)c12` [Example 366, (8S,8aS,9S,12R)-5-(8-ethynyl-7-fluoronaphthalen-1-yl)-4-fluoro-8-methyl-3-(((R)-1-methylazetidin-2-yl)methyl)-8a,9,10,11,12,13-hexahydro-8H-7-oxa-1,3,6,13a,14-pentaaza-9,12-methanonaphtho[1,8-ab]heptalen-2(3H)-one], the IC50 in series [1] (Homo sapiens, PANC-1, 3 h) was 272 nM.

`C#Cc1c(F)ccc2cccc(-c3nc4c5c(nc(=O)n(C[C@@]6(C)CCCN6C)c5c3F)N3C[C@H]5CC[C@H](N5)[C@H]3[C@H](C)O4)c12` [Example 367, (8S,8aS,9S,12R)-3-(((R)-1,2-dimethylpyrrolidin-2-yl)methyl)-5-(8-ethynyl-7-fluoronaphthalen-1-yl)-4-fluoro-8-methyl-8a,9,10,11,12,13-hexahydro-8H-7-oxa-1,3,6,13a,14-pentaaza-9,12-methanonaphtho[1,8-ab]heptalen-2(3H)-one] yielded an IC50 in series [1] (Homo sapiens, PANC-1, 3 h) of 234 nM.

As for `CCc1c(F)ccc2cc(O)cc(-c3nc4c5c(nc(=O)n(C[C@H]6CCN6C)c5c3F)N3C[C@H]5CC[C@H](N5)[C@H]3[C@H](C)O4)c12` [Example 369, (8S,8aS,9S,12R)-5-(8-ethyl-7-fluoro-3-hydroxynaphthalen-1-yl)-4-fluoro-8-methyl-3-(((R)-1-methylazetidin-2-yl)methyl)-8a,9,10,11,12,13-hexahydro-8H-7-oxa-1,3,6,13a,14-pentaaza-9,12-methanonaphtho[1,8-ab]heptalen-2(3H)-one], the IC50 in series [1] (Homo sapiens, PANC-1, 3 h) came out at 400 nM.

In series [1] (Homo sapiens, PANC-1, 3 h), `C#Cc1c(F)ccc2cccc(-c3nc4c5c(nc(=O)n(C(C)[C@H]6CCCN6C)c5c3F)N3C[C@H]5CC[C@H](N5)[C@H]3[C@H](C)O4)c12` (stereo partly drawn) [Example 370, (8S,8aS,9S,12R)-5-(8-ethynyl-7-fluoronaphthalen-1-yl)-4-fluoro-8-methyl-3-(1-((R)-1-methylpyrrolidin-2-yl)ethyl)-8a,9,10,11,12,13-hexahydro-8H-7-oxa-1,3,6,13a,14-pentaaza-9,12-methanonaphtho[1,8-ab]heptalen-2(3H)-one] had an IC50 of 271 nM.

Take `C#Cc1c(F)ccc2cc(O)cc(-c3ncc4c(N5CC6CCC(C5)N6)nc(OC[C@@]56CCCN5C[C@H](F)C6)nc4c3F)c12` [MRTX1133, reference compound]: in series [2] (oral dose 30 mpk), the “Fa*Fg (%)” value is listed as 0.95%.
